Measured values taken from patent US20240293337A1, “USE OF DOXERCALCIFEROL TO TREAT AND/OR PREVENT UTERINE FIBROIDS OR POLYCYSTIC OVARY SYNDROME” (priority 2023, published 2024).

What was measured:
[1] = Glucose tolerance test in PDX UF mice; assay type: in vivo, NOD/SCID mice; settings: 6 weeks after treatment, vs control
Experimental: After xenograft mice undergo intraperitoneal injection of doxercalciferol (300 ng/kg, 3 times per week) or saline for 6 weeks. Body weight is monitored weekly during doxercalciferol treatment. Six weeks after doxercalciferol treatment insulin resistance is assessed using GTT and then mice are anesthetized and blood is collected to measure liver enzyme and AMH levels, ovary tissue is removed for histological analysis, total RNA is extracted for sequencing, and tumor size is measured with a digital caliper.
Glucose tolerance testing is performed on PDX UF mice 6 weeks after doxercalciferol treatment. Mice are tested either without fasting or after fasting for 16 h (5 p.m. to 9 a.m.), with free access to drinking water, after which they receive an intra-peritoneal (i.p.) injection of D-glucose (2.0 g/kg body weight). Blood glucose level is measured at 0, 15, 30, 60, 90, and 120 min following glucose injection using a Bayer glucose monitor (Roche Diagnostics Corp, IN, USA).

[2] = tested on: H295R cells; assay: Androgen producing gene expression in H295R cells (qPCR); assay type: cell-based, human; settings: 24 hours
Experimental: H295R cells are subcultured in T75 flasks for 24 hours. Cells are then treated for 24 hours with serum free basal media as a control or doxercalciferol at 1 nM, 10 nM, or 100 nM diluted in basal media (serum-free) at a 1:1 ratio. After the incubation period, cells are imaged and analyzed for morphology and cell count. Cells are then collected for analysis of steroidogenesis-related gene expression. Cell culture media are collected and used for testosterone quantification using ELISA based Testosterone Parameter Assay Kit (R&D system) per the manufacturer's protocol. The testosterone level is quantified using a multimode microplate reader system, Varioskan LUX Multimode Microplate Reader (Thermo Fisher).
RNA is extracted from H295R cells treated with doxercalciferol. RNA extraction is done using TRIzol (Invitrogen, USA) according to the manufacturer's instructions. The concentration and purity of the extracted RNA are checked using a NanoDrop spectrometer (Thermo Scientific, MA, USA). For qPCR of steroidogenesis related genes in H295R cells 1 μg of total RNA is reverse transcribed using RNA to cDNA EcoDry™ Premix (Double Primed) (Takara Bio USA Inc., CA, USA). The reaction mixture is incubated for 1 hour at 42° C.; incubation is stopped at 70° C. for 10 min. qPCR is performed using the CFX96 PCR instrument and SYBR Green Supermix (Bio-Rad, Hercules, CA, USA) with specific primers (RT^2 Profiler PCR Array for Human Adipogenesis, PAHS-049ZA, QIAGEN) to the target genes in a 20 μL final reaction volume. The delta-delta threshold cycle (ΔΔCt) method is used to calculate the fold change expression in mRNA level in the samples.

[3] = tested on: letrozole induced polycystic ovary syndrome (PCOS) mouse models; assay: Histology (H&E) of PCOS mouse tissues; assay type: in vivo, C57BL/6 mice; settings: after five weeks of treatment
Experimental: […] […] Each of these tissues are fixed in 4% paraformaldehyde for further histological analysis. Ovary, uterus, gonadal white fat, kidney, and liver tissue are collected and fixed in 4% paraformaldehyde. Tissue sections are stained with hematoxylin-eosin (H&E). Histological analyses are performed using Asperio ImageScope (Leica Biosystem, Wetzlar, Germany).

[4] = tested on: Human MSC derived adipocytes; assay: MSC derived adipocyte differentiation, 14 days, morphology and oil red-O staining; assay type: cell-based; settings: 100 nM
Experimental: Human mesenchymal stem cells (MSC) are used as an in vitro cell culture model of adipocyte precursors to assess adipocyte differentiation. MSC cells are purchased from (Lonza). The cells are cultured in the DMEM/F12 media containing 10% FBS. At approximately 80% confluence, the cells are trypsinized using TrypLE select enzyme (Gibco, MA) and are serially expanded. At the end of the culture expansion, MSCs are collected and centrifuged at 300×g for 5 minutes. Human MSCs are treated with doxercalciferol and are cultured in adipocyte induction medium for 14 days. Mesenchymal Adipogenesis Kit (Sigma) and manufacturer's induction protocol are used for adipocyte induction. Imaging and morphology analysis is performed on days 1, 7, 10, and 14. On day 14 when adipocyte differentiation is completed, the cells undergo oil red-O staining and are imaged for further morphology analysis.

In the case of `C=C1/C(=C\C=C2/CCC[C@]3(C)[C@@H]([C@H](C)/C=C/[C@H](C)C(C)C)CC[C@@H]23)C[C@@H](O)C[C@@H]1O` [doxercalciferol], the fasting glucose levels ([1]; fasting 16 h) is reported as “tends to lower”, the glucose levels ([1]; without fasting) is reported as “tends to lower” and the CYP11A1 gene expression ([2]; 1 nM) is reported as “not significantly changed”. For the same compound, the CYP17A1 gene expression ([2]; 1 nM) was “significantly increased”, the CYP11A1 gene expression ([2]; 10 nM) was “significantly increased” and the CYP17A1 gene expression ([2]; 10 nM) was “not significantly changed”. The CYP11A1 gene expression ([2]; 100 nM) was “significantly decreased”, the CYP17A1 gene expression ([2]; 100 nM) was “significantly decreased” and the “kidney and liver histology” value ([3]; PCOS mice) was “no significant evidence of tissue damage or inflammation”. The “ovary histology (follicles)” value ([3]; PCOS mice, untreated PCOS mice have numerous cysts) was “good numbers of follicles”, the “gonad white fat histology, adipocyte size vs untreated PCOS mice” value [3] was “reduced adipocyte size” and the “uterus histology, vs untreated PCOS mice” value [3] was “improved uterine epithelial cell organization”. The “Oil red-O staining, presence of adipocytes” value ([4]; 1 nM, 10 nM, day 14) was “presence of adipocytes in all treatment groups except the 100 nM group” and the cell morphology ([4]; 14 days) was “most cells dead”.
